{"source": "patent US6943147B2", "about": "“Cancer treatment using proANP peptides” (University of South Florida, priority 2003, dated 2005)", "tested_on": "pancreatic adenocarcinoma cells", "experiment": "DNA synthesis by bromodeoxyuridine (BrdU) incorporation into adenocarcinoma cells", "format": "cell-based, human", "conditions": "1 μM, 24 hours", "excerpt": "To investigate whether these peptide hormones were inhibiting DNA synthesis and cell proliferation bromodeoxyuridine (BrdU) incorporation into the adenocarcinoma cells was utilized. BrdU was from BD Bioscience, San Jose, Calif. DNA synthesis and doubling of the genome take place during the synthetic or S phase. BrdU is a thymidine analog incorporated into nuclear DNA during the S phase of the cell cycle. Immunohistochemical methods use BrdU also as a marker of cell proliferation in cancer biology studies. After 24 hours in culture with 1 μM of LANP, vessel dilator, kaliuretic peptide, or ANP, respectively, or with no peptide hormone (i.e., control), BrdU in a final concentration of 10 μM in the cell culture medium was added for 45 minutes—which is time in which the cells are in the logarithmic phase of cell proliferation. For immunohistochemistry, a BrdU in situ detection kit from Becton Dickinson Immunocytochemistry Systems, San Jose, Calif., was utilized.\nAfter the 45 minutes with BrdU, the adenocarcinoma cells were washed three times in phosphate buffered saline (PBS), five minutes each. This was followed by placing the cells in a −80° C. freezer for five minutes and then 100% methanol was added at 5° C. in order for the cells to become permeable enabling the anti-BrdU antibody to reach the nucleus of the cell. The cells were then washed again in PBS before 100 μl of biotinylated anti-BrdU antibody was added. The coverslips were then incubated in a humidified chamber for one hour. After this incubation, the slides were rinsed in PBS, two minutes each. Then streptavidin-horseradish peroxidase (HRP) was added to each coverslip. The cells were then incubated for 30 minutes. Streptavidin-HRP binds to biotinylated anti-BrdU and HRP is used with addition of diaminobenzidine (DAB) substrate system to visualize BrdU incorporation into the adénocarcinoma cells. After the 30 minute incubation with streptavidin-HRP, the coverslips were rinsed in PBS, two minutes each time, before adding the DAB substrate solution, which contains DAB chromagen and DAB buffer, for five minutes. The coverslips were then rinsed in water, two minutes each time before counterstaining the slides with hematoxylin for 60 seconds followed by a thorough rinsing in water for five minutes. The incorporation of the BrdU stain into the nucleus was then counted using a Nikon Inverted Diaphot-TMD Microscope (Tokyo, Japan). The number of stained nuclei was compared in the four peptide hormone groups to the positive control group. The negative control for these studies was provided by Becton Dickinson Immunocytochemistry Systems.\nBrdU has an advantage over ^3H-thymidine incorporation in that it takes less time and provides high resolution.\nCyclic GMP and prostaglandin E2 are the two known mediators of all of the previously described biologic effects of these four peptide hormones. All four of these peptide hormones-induced vasodilation of vasculature is mediated by increased cyclic GMP concentrations via enhancing guanylate cyclase activity. […] ANPs effects in the kidney are thought to be mediated by cyclic GMP. Each of these peptide hormones increase cyclic GMP while simultaneously dilating vasculature. 8 bromo-cyclic GMP reproduces these vasodilatory effects. For the present investigation of the mechanism of these peptide hormones' ability to inhibit DNA synthesis in cancer cells, 8-bromoguanosine 3′,5′-cyclic monophosphate (i.e., 8-bromo cyclic GMP, Sigma-Aldrich Co., St. Louis, Mo.) was utilized. 8-bromo cyclic GMP is a cell-permeable analog of cyclic GMP. 8-bromo cyclic GMP effects on DNA synthesis were investigated in dose-response curves with cyclic GMP concentrations ranging from 100 pM to 5 mM.\nProstaglandin E2, i.e., (5Z, 11α, 13E, 15S)-11, 15-dihydro-9-oxo-prosta-5, 13-dien-I-oic acid was purchased from Sigma-Aldrich, St. Louis, Mo. […]"}
{"substance": "vessel dilator: a.a. 31-67 of the 126 a.a. ANP prohormone; peptide hormone from Peninsula Laboratories", "values": [{"measurement": "inhibition of DNA synthesis", "result": 91, "unit": "%"}]}
